Measured values reported in patent US20060160789A1 (priority 2005, published 2006).
Values joined by “and” are separate entries in the source; they are usually repeats but may differ in a detail not shown here. Identical values can stand only once.

Tested on: patients hospitalized for a laparotomy in the context of digestive surgery
Conditions: human, in vivo

SMILES: CN1CCOC(c2ccccc2)c2ccccc2C1 (centres unmarked) [nefopam]
- Morphine PCA over 24 h: 0.255 mg/kg and 0.454 mg/kg
- Morphine titration (mg): 7.5 mg and 9 mg
- Morphine titration (mg/kg): 0.082 mg/kg and 0.130 mg/kg
- Total morphine over 24 h: 0.365 mg/kg and 0.649 mg/kg
- quantity of morphine titration administered for group 4 versus quantity expected if nefopam only had analgesic effects: smaller than that which would have had to be administered to the group if nefopam only had analgesic effects
